This is an account of results in patent US20240277662A1, “Administration of a Compound to Individuals with Hepatic Impairment” (Arena Pharmaceuticals, Inc., priority 2021, published 2024).

Read-outs that look alike come from different tables or passages of the source.

Series [1] is described as follows: Open-label, parallel-group single-dose PK study of etrasimod in patients with hepatic impairment and matched controls. Type of series: in vivo, human. To be noted: single oral dose 2 mg; for half-life: po, 2 mg, read-out: t1/2, mean (converted). The text has this:
(§1) A study evaluated the effect of hepatic impairment on the PK, safety, and tolerability of etrasimod.
An open-label, parallel-group study included 36 patients (aged 18-80 years; body mass index ≥18) with hepatic impairment, based on Child-Pugh score at screening (mild=5-6 [n=8], moderate=7-9 [n=8], severe=10-14 [n=6]), and demographically matched control patients with normal hepatic function (n=14 total). The first patient with severe hepatic impairment was enrolled after ≥2 patients with mild hepatic impairment and ≥2 patients with moderate hepatic impairment had been enrolled and followed for ≥48 hours after dosing to ensure no significant safety signals were observed. On Day 1, patients received a single oral dose of etrasimod 2 mg after ≥10-hour fast. PK and safety data were collected over 21 days. Safety was assessed by adverse event monitoring, vital signs, physical and neurological examination, 12-lead electrocardiogram (ECG), and clinical laboratory evaluations. Plasma concentrations of etrasimod were determined via liquid chromatography-tandem mass spectrometry (LC-MS/MS) from matrix-matched calibration curves between 0.25 to 100.0 ng/ml and 0.1 to 120.4 ng/mL for total etrasimod (bound and unbound) and unbound etrasimod, respectively. Analyte LC-MS/MS quantitation reagents included an ACE C18 column, a 20-mM ammonium acetate/acetonitrile mobile phase, a Shimadzu LC pump and autosampler, and a Sciex API6500+MS with an electrospray probe in negative multiple reaction monitoring. Plasma protein-free supernatant was collected via ultracentrifugation at 223,000 g for 4 hours. Unbound etrasimod concentrations were only measured four hours post dose and results assumed to apply to other PK collection times. For protein precipitation, acetonitrile was applied to a 1:1 mixed matrix of plasma: supernatant. The positive control was warfarin. Plasma concentrations and PK parameters were summarized by hepatic function using descriptive statistics. Unbound etrasimod PK parameters were based on total etrasimod PK parameters adjusted by percent unbound. Mean plasma concentration-time profiles were presented graphically. Phoenix WinNonlin (CertaraUSA, Inc.) was used for PK analysis.

Series [2] can be described thus: Safety and tolerability of a single oral dose of etrasimod in the hepatic impairment study. Type of series: in vivo, human. The note with it: single oral dose 2 mg; normal hepatic function or mild, moderate, severe hepatic impairment.
From the text: as §1
An open-label, parallel-group study included 36 patients (aged 18-80 years; body mass index ≥18) with hepatic impairment, based on Child-Pugh score at screening (mild=5-6 [n=8], moderate=7-9 [n=8], severe=10-14 [n=6]), and demographically matched control patients with normal hepatic function (n=14 total). The first patient with severe hepatic impairment was enrolled after ≥2 patients with mild hepatic impairment and ≥2 patients with moderate hepatic impairment had been enrolled and followed for ≥48 hours after dosing to ensure no significant safety signals were observed. […] Safety was assessed by adverse event monitoring, vital signs, physical and neurological examination, 12-lead electrocardiogram (ECG), and clinical laboratory evaluations. Plasma concentrations of etrasimod were determined via liquid chromatography-tandem mass spectrometry (LC-MS/MS) from matrix-matched calibration curves between 0.25 to 100.0 ng/ml and 0.1 to 120.4 ng/mL for total etrasimod (bound and unbound) and unbound etrasimod, respectively. Analyte LC-MS/MS quantitation reagents included an ACE C18 column, a 20-mM ammonium acetate/acetonitrile mobile phase, a Shimadzu LC pump and autosampler, and a Sciex API6500+MS with an electrospray probe in negative multiple reaction monitoring. […]

The conditions of series [3]: approximately 281 adult subjects treated at various doses; cited from earlier work.
Series [4] concerns ulcerative colitis. The note with it: UC patients, cited from earlier work.

The term Tmax denotes the time from dosing to the highest level. Turning to `O=C(O)C[C@H]1CCc2c1[nH]c1ccc(OCc3ccc(C4CCCC4)c(C(F)(F)F)c3)cc21` [Compound 1, (R)-2-(7-(4-cyclopentyl-3-(trifluoromethyl)benzyloxy)-1,2,3,4-tetrahydrocyclopenta[b]indol-3-yl)acetic acid], the half-life in series [1] (human, plasma, demographically matched normal control groups) is 43.9 to 59.5 h; in series [1] (human, plasma, mild hepatic impairment group), 55.7 h; in series [1] (human, plasma, moderate hepatic impairment group), 69.7 h; in series [1] (human, plasma, severe hepatic impairment group) it was 76.5 h. The time of peak concentration (Tmax) in series [1] (human, fasted, across all groups, plasma, read-out: median tmax) is 4 to 8 h. The “unbound etrasimod AUC vs demographically matched normal control groups” value in series [1] (all hepatic impairment groups) is given as “typically comparable”. Also, the “mean plasma concentration-time profiles” value in series [1] (moderate and severe hepatic impairment groups) is listed as “slightly higher”; in series [1] (normal hepatic function vs mild hepatic impairment groups), “overlapped”. Besides, the “changes in etrasimod exposure” value in series [1] (patients with mild, moderate or severe hepatic impairment) was “relatively modest changes”. In addition, the “unbound etrasimod Cmax, lower vs demographically matched normal control groups” value in series [1] (progressively lower in mild, moderate and severe hepatic impairment groups) is given as “up to 42.0%”. In addition, the “peak exposure (Cmax) vs demographically matched normal control groups” value in series [1] (total etrasimod, all hepatic impairment groups) is on record as “comparable”. In series [2], the safety findings result is “no clinically significant safety findings”. In addition, the tolerability entry in series [2] is “well tolerated”. In addition, the safety and tolerability result in series [3] is “safe and well-tolerated”. The “endoscopic and symptomatic improvements versus placebo” value in series [4] (2 mg QD for 12 weeks) was “clinically meaningful and statistically significant endoscopic and symptomatic improvements”. Moreover, the “beneficial effects in open-label extension study” value in series [4] (up to 46 weeks) is “Sustained beneficial effects”.
